Measurements reported in patent US20140234420A1, “Method of Treating Skin Disorders using Nanoscale Delivery Devices and Transdermal Enhancing Compositions” (priority 2008, published 2014).
≈ marks a conversion by molar mass, not a printed value. Counter-ions that a name gives are not always drawn. Like-named read-outs stand apart in the source and are kept apart here.

How the values were obtained:
[1] = Size, polydispersity index and zeta potential determination (Malvern Zetasizer); type: physicochemical
Experimental: Nanoparticles (2 mg) and micelles (2 mg) were dispersed in 2 ml of purified water and bath sonicated for 1 min. They were then centrifuged at 10000 rpm for 5 min and diluted 50 times with distilled water. About 50 μl of the nanoemulsion was taken and dilated to 1 mL using distilled water. A liposome dispersion was diluted 100 times using purified water and probe sonicated for 1 min using 20% amplitude. The sizes, polydispersity indexes, and zeta potentials, were measured with a Malvern Zetasizer.
Nanoparticles (2 mg) were dispersed in 1 ml of purified water and probe sonicated for 1 min using 20% amplitude. Subsequently, the sonicated particles were diluted 10 times with distilled water and properties were measured using a Malvern Zetasizer. […]
Size, polydispersity index and zeta potential determination: nanoparticles (50 μl), nanoemulsions (squalene) (50 μl) and nanomicelles (2 mg) were dispersed in 2 ml of purified water separately, vortex for 1 min. Further, the size, polydispersity index and zeta potential were measured with a Malvern Zetasizer.

[2] = Encapsulation (entrapment) efficiency; type: physicochemical; details: for % EE: drug encapsulated in zein/lecithin/squalene nanoemulsions
Experimental: Detection wavelength: 340 nm; Injection volume: 50 μl: Run time: 10 min. […] The resulting solution was centrifuged at 5000 rpm for 5 min. […] The resulting solution was centrifuged 5000 rpm for 5 min. […] In vitro release of MTX from the formulations in phosphate buffer (pH 7.4) was studied using UV-spectrophotometry. […] Benzoyl peroxide content was measured using HPLC.

[3] = cited from earlier work
[4] = cited from earlier work; remark: listed apart in the source
scleroderma patients = details: one course of systemic treatment (MTX 15-25 mg/weekly for 6 months); cited from earlier work
[5] = hamster ear in vitro, 24 hrs treatment
Excerpt: The excised hamster ear was placed on the Franz diffusion cell by exposing ventral surface towards the donor compartment.

[6] = sebum flux from citrate-phosphate buffer (pH 5.5), 37° C.
Experimental: The supporting membrane (polycarbonate membrane, pore size of 0.4 μm) of each insert was loaded with 2.5±0.2 mg of the artificial sebum. […] The study was carried out in an incubator at 125 rpm under 37° C. The complete receptor medium was replaced with fresh medium at predetermined intervals, i.e., 10, 20, 30, 40, 50, 60, 75, 90, 120 and 180 minutes after treatment. […] The cumulative quantity of drug in the receiver compartment was plotted as a function of time. The flux value for a given experiment was obtained from the linear slope (steady-state portion) of the cumulative amount of drug permeated versus time curve.

[7] = Stability (half-life) of retinol, free and encapsulated; type: physicochemical
Excerpt: Encapsulation of retinol into the zein nanoparticles and micelles improved the stability of retinol by 2 to 5 fold (see Table 5).

[8] = Dispersibility in aqueous solution; type: physicochemical
[9] = drug encapsulated in zein/lecithin/squalene nanoemulsions
[10] = molecules encapsulated in nanoemulsions (Table 23)
[11] = compound encapsulated in zein micelles
[12] = compound encapsulated in zein core-shell particles

SMILES: O=C(OOC(=O)c1ccccc1)c1ccccc1 [Benzoyl peroxide, Benzoyl Peroxide]
- Particle Size [1, 9]: 208.5 ± 6.7 nm
- % EE [2]: 83.66 ± 3.81%
- Log P [3, 10]: 3.48
- Solubility in ether and chloroform [4]: Soluble
- Solubility in water [4]: insoluble

SMILES: COc1cc(/C=C/C(=O)CC(=O)/C=C/c2ccc(O)c(OC)c2)ccc1O [Curcumin]
- PI [1, 11]: 0.25 ± 0.03
- Particle Size [1, 11]: 124 ± 4 nm
- Encapsulation Efficiency [2, 11]: 95 ± 4%

SMILES: COc1cccc2c1C(=O)c1c(O)c3c(c(O)c1C2=O)C[C@@](O)(C(=O)CO)C[C@@H]3O[C@H]1C[C@H](N)[C@H](O)[C@H](C)O1 [Doxorubicin-HCl]
- Particle Size [1, 12]: 171 ± 45 nm
- Encapsulation Efficiency [2, 12]: 61 ± 16%
- Log P ([3]; compounds encapsulated in zein core-shell particles (Table 1)): −0.5

SMILES: COc1cccc2c1C(=O)c1c(O)c3c(c(O)c1C2=O)C[C@@](O)(C(=O)CO)C[C@@H]3O[C@H]1C[C@H](N)[C@H](O)[C@H](C)O1 [Doxorubicin]
- PI [1, 11]: 0.18 ± 0.06
- Particle Size [1, 11]: 153 ± 3 nm
- Encapsulation Efficiency [2, 11]: 92 ± 6%

SMILES: CN(Cc1cnc2nc(N)nc(N)c2n1)c1ccc(C(=O)N[C@@H](CCC(=O)O)C(=O)O)cc1 [Methotrexate]
- Particle Size [1, 9]: 214.3 ± 8.4 nm
- % EE [2]: 87.60 ± 2.1%
- Log P [3]: −1.8
- Log P [3, 10]: −1.8
- Solubility in water ([4]; at 19° C.): < 0.1 g/100 ml
- Solubility in DMSO [4]: 100 mM (≈ 45.4 mg/mL)
- Patients who reached a remission status (scleroderma patients): 51%

SMILES: CCN(CC)c1ccc2nc3c4ccccc4c(=O)cc-3oc2c1 [Nile Red]
- PI [1, 11]: 0.21 ± 0.08
- Particle Size [1, 11]: 165 ± 7 nm
- Encapsulation Efficiency [2, 11]: 77 ± 11%
- Log P ([3]; compounds encapsulated in zein micelles (Table 2)): 5

SMILES: CC1=C(/C=C/C(C)=C/C=C/C(C)=C/C(=O)O)C(C)(C)CCC1 [Retinoic acid Solution]
- % Applied dose in Cartilage [5]: 2.409%
- % Applied dose in Dermis [5]: 1.444%
- % Applied dose in Dorsal [5]: 4.713%
- % Applied dose in Sebaceous gland [5]: 0.06619%
- % Applied dose in SC ([5]; 100 μg retinoic acid): 1.692%

SMILES: CC1=C(/C=C/C(C)=C/C=C/C(C)=C/C(=O)O)C(C)(C)CCC1 [Retinoic acid]
- Particle Size [1, 9]: 152 ± 3.6 nm
- Log P [3, 10]: 6.83
- Flux [6]: 0.154 ± 0.003 μg/cm^2/min
- Solubility in fat [4]: soluble
- Solubility in water [4]: nearly insoluble

SMILES: CC1=C(/C=C/C(C)=C/C=C/C(C)=C/CO)C(C)(C)CCC1 [Retinol]
- PI [1, 11]: 0.27 ± 0.06
- Particle Size [1, 11]: 191 ± 6 nm
- Encapsulation Efficiency [2, 11]: 83 ± 3.1%
- half-life ([7]; liquid state, Dark): 20.8 ± 2.1 h
- half-life ([7]; liquid state, Light): 16.1 ± 1.9 h
- half-life ([7]; solid state, Dark): 63 ± 2.7 h
- half-life ([7]; solid state, Light): 52.8 ± 3.5 h
- Dispersibility in aqueous solution / water [8]: not dispersible in water
- Solubility in fat [4]: soluble
- Solubility in water [4]: nearly insoluble
